# Measured values from patent publication US6231875A, “Acidified composition for topical treatment of nail and skin conditions” (Johnson & Johnson Consumer Companies, Inc., priority 1999, dated 2001).
# Test system: onychomycosis
# Assay: not given
# Conditions: after nail removal; cited from earlier work
row,Structure (SMILES),Effectiveness in topically treating onychomycosis
1,CC(=O)N1CCN(c2ccc(OCC3COC(Cn4ccnc4)(c4ccc(Cl)cc4Cl)O3)cc2)CC1 (stereo not drawn) [ketoconazole],effective
2,Clc1ccc(COC(Cn2ccnc2)c2ccc(Cl)cc2Cl)c(Cl)c1 (stereo not drawn) [miconazole],effective

# Test system: not listed separately
# Assay: pH measurement of acidifiers with a glass electrode
# Type: physicochemical
# Conditions: after 1 min
# Source text: Apparent pH is the pH reading measured by a glass pH electrode. The preferred acidifiers are 37% HCl, 10% HCl, sulfuric acid, o-phosphoric acid, nitric acid, acetic acid, L (+)-lactic acid, salicylic acid, and glycolic acid. The particularly preferred acidifiers are 37% HCl and 10% HCl. If the total weight of the acidified composition is 100 parts, the acidifier should be about 0.05 to about 50% w/w (w/w=weight/weight), preferably, from about 0.1% to about 10%, more preferably form about 0.5% to about 5%.
row,pH reading,Structure (SMILES)
1,-0.19 to -0.28,CC(=O)O [Acetic acid]
2,0.43,O=C(O)CO [Glycolic Acid]
3,0.31,C[C@H](O)C(=O)O [L(+)-lactic acid]

row,Structure (SMILES),pH reading
1,O=C(O)c1ccccc1O [Salicylic acid],2.92
